How the values were obtained:
hTRPA1 = target: T1, hTRPA1 (Homo sapiens, UniProt O75762); experiment: Calcium imaging of transfected HEK cells; format: cell-based
T1 construct: expressed in transfected cells; host or cells: HEK293 / HEK293T
Protocol: To determine if TRPA1 is sufficient for optovin activity, current density amplitudes were analyzed via whole-cell patch clamping in HEK293T cells transfected with the human TrpA1 (hTrpA1) gene.
HEK293 cells were plated onto poly-lysine-coated glass bottom culture dishes (MatTek Corp), and grown in Dulbecco's Modified Eagle's Medium (DMEM, Sigma) supplemented with 10% fetal bovine serum and 100 U/mL penicillin and 100 μg/ml streptomycin. After 24 hrs, cells were transfected, according to manufacturer's instructions, in Opti-MEM media, using 4 μl lipofectamine 2000 (Invitrogen), 0.5 ug EGFP in pcDNA, and 0.3 μg TrpA1 DNA per dish. Media was replaced after 2 hours, and cells were cultured for an additional 17 hours. As previously described for neurons, HEK cells were washed with assay buffer (HBSS Gibco 14025, supplemented with 9 mM HEPES, 11 mM D-glucose, 0.1% fatty-acid free BSA, pH 7.3) and incubated for 1 h with 2 μM Fura2-AM (Invitrogen) with 0.2% pluronic (Invitrogen) in assay buffer in the dark at room temperature. The cells were then washed with assay buffer and allowed to equilibrate at room temperature for 30 min prior to imaging. At the start of the imaging session for each dish, cells were replaced with DMSO-assay buffer. After 50 seconds of imaging, assay buffer was aspirated by hand, and replaced with 100 μM optovin dissolved in the DMSO-assay buffer solution. Each dish of HEK cells was imaged for a total of 3 minutes.
Cells were transfected with the hTRPA1^44, TRPA1 C621S^44, hTRPA1 C633S^45 and hTRPA1 C633S, C856S^45 plasmids as described.

zebrafish embryos = experiment: Zebrafish behavioral assay (light-dependent motor excitation, excitation score); format: in vivo
Protocol: To identify small molecules for the optical control of endogenous channels, a screen was conducted for compounds that could drive light-dependent motor behaviors in wild-type zebrafish. Zebrafish embryos are particularly well suited for phenotype based chemical screens^28,29. They are blind for the first 3 days of development and other than a one-time motor response to the first light exposure in dark-adapted animals (the photomotor response, PMR), zebrafish embryos are unresponsive to light^31,30 (FIG. 1A). A library of 10,000 structurally diverse synthetic small molecules was screened for compounds that render zebrafish embryos responsive to light. Behavioral responses were measured for each well in comparison to a set of 2,500 DMSO treated controls. This screen identified a single compound, optovin, that increased motor activity greater than 40 standard deviations above the control mean (FIGS. 1A-1C).
A large number of fertilized eggs (up to 5,000 embryos per day) were collected from group mating of Ekkwill or TuAB zebrafish. Embryos were raised in HEPES (10 mM) buffered E3 media in a dark incubator at 28° C. until […]. Groups of ˜8 embryos (28 hpf) were distributed into the wells of flat bottom black-walled 96 well plates filled with E3 media (360 μl). Embryos were then incubated in a dark incubator 25° C. for chemical treatment and subsequent experiments.
The Tim Tec ACTIPROBEβ library contains 10,000 compounds dissolved in DMSO at a stock concentration of 1 mg/ml (˜3 mM). The Tim Tec library was screened at a 1:300 dilution in E3 buffer for a final concentration of ˜10 μM. Negative controls were treated with an equal volume of DMSO. Stock solutions were added directly to zebrafish in the wells of a 96 well plate, mixed, and allowed to incubate for 2-10 hours in the dark prior to behavioral evaluation in the PMR assay. The Tim Tec library (10,000 compounds) was purchased from the Tim Tec corporation (Newark, Del.). The Neurotransmitter Library (700 compounds; cat #2810) was purchased from Biomol International. Reordered hit compounds were dissolved in DMSO and added to wells as described above.
Animals were exposed to a two pulse stimulus train with a 10 s inter-stimulus interval. Exposure to the first pulse was used to trigger the photomotor response, which has a refractory phase of approximately 10 minutes. […] In a typical assay, 1000 frames of digital video were recorded at 33 fps using a Hamamatsu ORCA-ER camera mounted on a Nikon TE200 microscope with a 1× objective. Instrument control and data measurement were performed using custom scripts for Metamorph Software (Molecular Devices). Each video was saved for review. Light stimuli were generated with a 300-watt xenon bulb housed in a Sutter Lambda LS illuminator and delivered to the well 10 s and 20 s after the start of each video. A cold mirror (reflectance between 300 nm and 700 nm) on the Sutter illuminator was used to block wavelengths outside of this range. Light intensity was measured using a PM100D power meter attached to a S120VC photodiode power sensor (Thorlabs). Where indicated, filters were used to restrict the excitation light to the indicated wavelengths.
To analyze digital video recordings, custom software scripts were used to automatically draw six evenly spaced line segments across each well such that each embryo is likely to be crossed by one of the lines. The software then tracks the average intensity of the pixels for each segment over time. As the embryos move, the light intensity at some of the pixels changes. The motion index was calculated by taking the total absolute difference in pixel intensity between frames. This motion index correlates with the overall amount of motion in the well, both in terms of contraction frequency and number of animals in motion. Behavioral features are quantified by ‘excitation scores’ that are calculated by taking the 75th percentile of the motion index for 3-5 s following the light stimulus. […]

T1 sequence (O75762 whole entry): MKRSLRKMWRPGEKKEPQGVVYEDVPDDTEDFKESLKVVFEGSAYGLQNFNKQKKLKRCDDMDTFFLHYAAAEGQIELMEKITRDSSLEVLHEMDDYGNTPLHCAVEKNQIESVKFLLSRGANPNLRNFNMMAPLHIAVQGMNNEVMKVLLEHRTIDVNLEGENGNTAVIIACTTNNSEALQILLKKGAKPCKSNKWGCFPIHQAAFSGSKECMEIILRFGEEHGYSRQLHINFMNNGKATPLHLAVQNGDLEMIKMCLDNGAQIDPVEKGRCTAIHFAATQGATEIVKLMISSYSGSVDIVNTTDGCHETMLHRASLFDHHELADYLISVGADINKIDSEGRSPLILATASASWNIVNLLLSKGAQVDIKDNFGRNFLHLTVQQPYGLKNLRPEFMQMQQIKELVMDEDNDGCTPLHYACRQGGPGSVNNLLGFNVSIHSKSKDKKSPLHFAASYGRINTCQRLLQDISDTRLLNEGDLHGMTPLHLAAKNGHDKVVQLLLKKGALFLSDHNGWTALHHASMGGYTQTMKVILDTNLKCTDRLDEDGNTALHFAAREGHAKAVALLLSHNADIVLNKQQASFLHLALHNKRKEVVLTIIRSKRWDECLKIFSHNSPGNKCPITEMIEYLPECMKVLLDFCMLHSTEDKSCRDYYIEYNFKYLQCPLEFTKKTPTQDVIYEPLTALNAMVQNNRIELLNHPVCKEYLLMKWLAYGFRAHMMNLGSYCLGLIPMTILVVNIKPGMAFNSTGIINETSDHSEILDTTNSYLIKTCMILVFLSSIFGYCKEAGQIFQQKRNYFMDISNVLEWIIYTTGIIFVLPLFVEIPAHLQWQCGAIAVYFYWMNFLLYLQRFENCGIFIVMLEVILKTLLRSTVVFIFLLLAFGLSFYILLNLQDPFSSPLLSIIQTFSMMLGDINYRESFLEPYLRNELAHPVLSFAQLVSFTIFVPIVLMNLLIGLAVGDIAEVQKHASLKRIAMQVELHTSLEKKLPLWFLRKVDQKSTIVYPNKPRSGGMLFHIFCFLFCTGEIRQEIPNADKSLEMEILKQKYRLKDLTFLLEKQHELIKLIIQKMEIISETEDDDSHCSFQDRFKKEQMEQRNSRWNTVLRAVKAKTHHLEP

Cc1cc(/C=C2/SC(=S)NC2=O)c(C)n1-c1cccnc1 [optovin]
change in fluorescence in response to light and optovin (hTRPA1; WT channels): strong change in fluorescence
effect of catalase and superoxide dismutase on optovin's effects (hTRPA1; hTRPA1 transfected HEK cells): Neither catalase nor superoxide dismutase reduce optovin's effects
calcium levels (hTRPA1; optovin and light, HEK cells transfected with hTrpA1): elevated calcium levels were observed
light-dependent motor excitation in vivo (zebrafish embryos; 10 μM, n=3, FIG. 4H): cause light-dependent motor excitation
behavioral excitation (activity of optovin analogs) (zebrafish embryos; 10 μM, n=5, FIG. 2A): active
response to stimulus wavelengths (zebrafish embryos; 387, 485, 560 nm or longer): respond to 387 nm (violet) stimuli, but not to 485 nm (blue), 560 nm (green) or longer wavelengths
EC50 (zebrafish embryos; Danio rerio, dose response, n=5, read-out: EC50 of light-induced motor excitation (behavioral excitation score)): 2000 nM
behavioral excitation by singlet oxygen generating photosensitizers (zebrafish embryos; FIG. 4F): only optovin causes behavioral excitation
response to 387 nm light stimulus (zebrafish embryos; TrpA1b homozygous mutant animals): failed to respond
latency of movement (zebrafish embryos; depending on developmental stage): 100 to 300 ms
relation of stimulus and response duration (zebrafish embryos; radiation stimuli lasting between 5 and 20 seconds): stimulus and response duration are proportional
increase in motor activity above the control mean (Z-score) (zebrafish embryos; screen at ~10 μM, light stimulus, vs DMSO treated controls): greater than 40 standard deviations
light response of spinalized preparations (zebrafish embryos; trunks transected posterior to the hindbrain): respond to light
response to 387 nm light stimulus (zebrafish embryos; wild-type, TrpA1a heterozygous and TrpA1a homozygous mutant animals): respond to the 387 nm light stimulus with the typical prolonged motor excitation
Off rate (time between end of light stimulus and return to rest) (zebrafish embryos; zebrafish, in vivo): 2 s
On rate (latency between start of light stimulus and start of embryo movement) (zebrafish embryos; zebrafish, in vivo): -150 ms
lowest effective dose (zebrafish embryos; zebrafish, in vivo): 3 µM
radiation stimulus intensity eliciting motor behavior (zebrafish embryos; zebrafish, in vivo): greater than 1.6 μW/mm^2
response to repeated light pulses (zebrafish embryos; zebrafish, in vivo): multiple responses can be triggered with repeated light pulses

— patent US9486447B2, “Compositions and methods for controlling neuronal excitation” (The General Hospital Corporation, priority 2011, dated 2016)
